Results taken from patent US10988433B2, “Cyclohexyl GPR40 agonists for the treatment of type II diabetes” (Janssen Pharmaceutica NV, priority 2016, dated 2021).

Key:
[1] = target: T1, human GPR40 (Homo sapiens, UniProt O14842); assay: GPR40 calcium flux assay, HEK293 cells stably expressing human GPR40; type: cell-based; settings: transfected HEK293 cells stably expressing human GPR40, Fluo 8 dye, read-out: hGPR40 Ca2+ Assay EC50
T1 construct: expressed in transfected cells
Experimental: (§1) Compounds were tested in a calcium flux assay using transfected HEK293 cells stably expressing either human GPR40 or rat GPR40. Human GPR40 expressing cells were cultured in DMEM-High Glucose media supplemented with 10% fetal bovine serum, 1×L-Glutamine, 1×Penicillin/Streptomycin and 500 μg/mL G418. Rat GPR40 expressing cells were cultured in DMEM-High Glucose media supplemented with 10% fetal bovine serum and 1 μg/mL puromycin. Cells were plated into poly-D-lysine coated 384-well plates and cultured overnight in a 37° C. humidified tissue culture incubator under 5% CO2/[…] atmosphere. On the day of the experiment, the culture media was replaced with assay buffer (HBSS, 20 mM HEPES, 0.1% BSA) and the cells incubated at 37° C. for 1 h. Calcium-sensitive fluorescent dye (Fluo 8 No-Wash Calcium Dye, ABD Bioquest) was then added and the cells incubated for another 30 min at 37° C. followed by 15 min at room temperature while protected from the light. The cell plate and a plate of diluted compounds of Formula (I) were loaded into a fluorescent plate reader that added compounds onto the cells while measuring the fluorescence intensity of each well. The plate reader recorded fluorescence intensity at 1 second intervals for 8 min and provided the data for analysis in an Excel format. EC50 values were calculated using Prism (GraphPad) software.

[2] = target: T2, rat GPR40 (Rattus norvegicus, UniProt Q8K3T4); assay: GPR40 calcium flux assay, HEK293 cells stably expressing rat GPR40; type: cell-based; settings: transfected HEK293 cells stably expressing rat GPR40, Fluo 8 dye, read-out: rGPR40 Ca2+ Assay EC50
T2 construct: expressed in transfected cells
Experimental: as §1

T1 sequence (O14842 whole entry): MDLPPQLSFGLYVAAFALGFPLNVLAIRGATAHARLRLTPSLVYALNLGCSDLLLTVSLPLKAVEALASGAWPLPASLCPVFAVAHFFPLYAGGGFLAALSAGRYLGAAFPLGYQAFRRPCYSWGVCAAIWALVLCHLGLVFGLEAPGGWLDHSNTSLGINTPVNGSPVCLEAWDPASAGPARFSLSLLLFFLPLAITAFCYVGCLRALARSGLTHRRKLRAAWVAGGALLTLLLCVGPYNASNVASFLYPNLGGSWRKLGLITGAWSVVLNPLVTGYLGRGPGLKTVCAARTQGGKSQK
T2 sequence (Q8K3T4 whole entry): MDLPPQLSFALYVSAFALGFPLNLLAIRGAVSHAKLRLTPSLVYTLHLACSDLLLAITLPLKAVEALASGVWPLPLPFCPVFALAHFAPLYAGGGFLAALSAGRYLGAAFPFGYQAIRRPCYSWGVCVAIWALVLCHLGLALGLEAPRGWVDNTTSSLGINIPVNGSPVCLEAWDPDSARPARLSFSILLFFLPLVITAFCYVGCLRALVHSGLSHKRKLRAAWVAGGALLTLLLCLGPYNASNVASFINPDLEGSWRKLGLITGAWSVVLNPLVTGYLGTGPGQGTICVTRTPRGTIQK

| SMILES | EC50 [1] | EC50 [2] |
| --- | --- | --- |
| COc1ccc(F)c(C2CCC(COc3cccc([C@H](C4CC4)C(F)C(=O)O)c3)CC2)c1 (stereo partly drawn) [Cpd 54, (3S)-3-Cyclopropyl-2-fluoro-3-(3-(((1r,4S)-4-(2-fluoro-5-methoxyphenyl)cyclohexyl)methoxy)phenyl)propanoic acid] | 0.5 nM | 1.4 nM |
| COc1ccc(F)c([C@H]2CC[C@@H](COc3cncc(C(CC(=O)O)C4CC4)c3)CC2)c1 (some centres unmarked) [Cpd 18, 3-Cyclopropyl-3-(5-(((1s,4s)-4-(2-fluoro-5-methoxyphenyl)cyclohexyl)methoxy)pyridin-3-yl)propanoic acid] | 226 nM | – |
| COc1ccc(C(=O)Nc2ccccn2)c(C2CCC(COc3cccc([C@H](C4CC4)C(C)(F)C(=O)O)c3)CC2)c1 (stereo partly drawn) [Cpd 71, (3S)-3-Cyclopropyl-2-fluoro-3-(3-((4-(5-methoxy-2-(pyridin-2-ylcarbamoyl)phenyl)cyclohexyl)methoxy)phenyl)-2-methylpropanoic acid] | 1.9 nM | 2.36 nM |
| COc1ccc(F)c([C@H]2CC[C@H](COc3cc([C@H](CC(=O)O)C4CC4)ccn3)CC2)c1 [Cpd 26, (R)-3-cyclopropyl-3-(2-(((1r,4r)-4-(2-fluoro-5-methoxyphenyl)cyclohexyl)methoxy)pyridin-4-yl)propanoic acid] | 10.9 nM | 19.8 nM |
| COc1ccc(F)c([C@H]2CC[C@H](COc3cccc([C@H](C4CC4)C(C)C(=O)O)c3)CC2)c1 (single isomer, unassigned) [Cpd 51] | 2.2 nM | 4.9 nM |
| COc1cc([C@]2(OC)CC[C@@H](COc3cc([C@@H](CC(=O)O)C4CC4)ccn3)CC2)c(F)cn1 [Cpd 44, (S)-3-cyclopropyl-3-(2-(((1s,4R)-4-(5-fluoro-2-methoxypyridin-4-yl)-4-methoxycyclohexyl)methoxy)pyridin-4-yl) propanoic acid] | 9.9 nM | 29 nM |
| COc1ccc(F)c([C@]2(O)CC[C@H](COc3cccc([C@@H](CC(=O)O)C4CC4)c3)CC2)c1 [Cpd 6, (S)-3-Cyclopropyl-3-(3-(((1r,4S)-4-(2-fluoro-5-methoxyphenyl)-4-hydroxycyclohexyl)methoxy)phenyl)propanoic acid] | 377 nM | – |
| COc1ccc(F)c([C@H]2CC[C@@H](COc3cccc(C(CC(=O)O)C4CC4)n3)CC2)c1 (some centres unmarked) [Cpd 14, 3-Cyclopropyl-3-(6-(((1 s,4s)-4-(2-fluoro-5-methoxyphenyl)cyclohexyl)methoxy)pyridin-2-yl)propanoic acid] | 1500 nM | – |

Continued, values first:

| EC50 [1] | EC50 [2] | SMILES |
| --- | --- | --- |
| 32.6 nM | 86.7 nM | COc1cc([C@H]2CC[C@H](COc3cccc([C@H](C4CC4)[C@](C)(F)C(=O)O)c3)CC2)c(F)cn1 [Cpd 63] |
| 0.44 nM | 8.93 nM | C[C@](F)(C(=O)O)[C@H](c1cccc(OCC2CCC(c3cc(F)ccc3F)CC2)c1)C1CC1 (stereo partly drawn) [Cpd 75, (2R,3S)-3-Cyclopropyl-3-(3-((4-(2,5-difluorophenyl)cyclohexyl)methoxy)phenyl)-2-fluoro-2-methylpropanoic acid] |
| 3080 nM | – | COc1cc([C@H]2CC[C@@H](COc3cccc(C(CC(=O)O)C4CC4)n3)CC2)c(F)cn1 (some centres unmarked) [Cpd 16, 3-Cyclopropyl-3-(6-(((1s,4s)-4-(5-fluoro-2-methoxypyridin-4-yl)cyclohexyl)methoxy)pyridin-2-yl)propanoic acid] |
| 307 nM | – | COc1cc([C@H]2CC[C@@H](COc3cncc(C(CC(=O)O)C4CC4)c3)CC2)c(F)cn1 (some centres unmarked) [Cpd 23, 3-Cyclopropyl-3-(5-(((1s,4s)-4-(5-fluoro-2-methoxypyridin-4-yl)cyclohexyl)methoxy)pyridin-3-yl)propanoic acid] |
| 138 nM | – | COc1cc([C@H]2CC[C@H](COc3cccc(C(CC(=O)O)C4CC4)n3)CC2)c(F)cn1 (some centres unmarked) [Cpd 15, 3-Cyclopropyl-3-(6-(((1r,4r)-4-(5-fluoro-2-methoxypyridin-4-yl)cyclohexyl)methoxy)pyridin-2-yl)propanoic acid] |
